The results in this text go back to patent publication US8946420B2, “Neuromodulatory compounds” (Map Pharmaceuticals, Inc., priority 2011, dated 2015).

The target in experiment [1] is T1, Recombinant human serotonin 5-HT2A receptor (Homo sapiens, UniProt P28223).
T1 construct: expressed in transfected cells; host or cells: CHO-K1 cells co-expressing mitochondrial apoaequorin
Kind of experiment: Aequorin assay, receptor agonist/antagonist activity, CHO-K1 cells. It counts as cell-based. As to the method:
(§1) Compound 5A was synthesized as described above and assayed for receptor activity against a panel of dopaminergic and serotoninergic receptors. Recombinant human receptors serotonin 5-HT2A, 5-HT2B were expressed in CHO-K1 cells and activity (receptor agonist/antagonist activity) was assayed using an Aequorin assay (coexpression of mitochondrial apoaequorin) and Compound 5a at a concentration of 0.10 nM to 20,000 nM for agonist activity and 0.005 nM to 10,000 nM for antagonist activity. […]. The preserved 5-HT2B antagonism activity is hypothesized to a decrease or minimized occurrence of fibrosis (cardiac and non-cardiac) as it is thought that 5-HT2B agonism is responsible for this undesirable side-effect in other iso-ergoline compounds. […]. A decreased agonist activity towards the D3 receptor by Compound 5a is likely to produce minimal or decreased hallucinogenic effects. […].

In experiment [2] the target is T2, Recombinant human serotonin 5-HT2B receptor (Homo sapiens, UniProt P41595).
T2 construct: expressed in transfected cells; host or cells: CHO-K1 cells co-expressing mitochondrial apoaequorin
T2 sequence (P41595 whole entry): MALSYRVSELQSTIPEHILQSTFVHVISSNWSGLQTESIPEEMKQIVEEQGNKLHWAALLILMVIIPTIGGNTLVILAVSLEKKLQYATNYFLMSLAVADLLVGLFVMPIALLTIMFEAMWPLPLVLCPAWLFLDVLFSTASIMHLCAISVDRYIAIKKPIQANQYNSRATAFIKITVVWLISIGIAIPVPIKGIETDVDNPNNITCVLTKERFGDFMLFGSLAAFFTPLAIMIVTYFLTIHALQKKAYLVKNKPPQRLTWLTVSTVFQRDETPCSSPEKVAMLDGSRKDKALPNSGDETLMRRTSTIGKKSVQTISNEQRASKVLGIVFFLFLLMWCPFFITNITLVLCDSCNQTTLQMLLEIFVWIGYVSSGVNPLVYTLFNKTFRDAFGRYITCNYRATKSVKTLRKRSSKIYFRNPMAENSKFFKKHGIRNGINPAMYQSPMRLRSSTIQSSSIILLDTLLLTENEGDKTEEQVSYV
The experiment is described as above. Format: cell-based. As to the method:
as §1

Experiment [3] deals with Recombinant human dopaminergic receptor D3 (Homo sapiens, UniProt P35462). Kind of experiment: GTPγS functional assay. It counts as biochemical.
Sequence of Recombinant human dopaminergic receptor D3 (P35462 whole entry): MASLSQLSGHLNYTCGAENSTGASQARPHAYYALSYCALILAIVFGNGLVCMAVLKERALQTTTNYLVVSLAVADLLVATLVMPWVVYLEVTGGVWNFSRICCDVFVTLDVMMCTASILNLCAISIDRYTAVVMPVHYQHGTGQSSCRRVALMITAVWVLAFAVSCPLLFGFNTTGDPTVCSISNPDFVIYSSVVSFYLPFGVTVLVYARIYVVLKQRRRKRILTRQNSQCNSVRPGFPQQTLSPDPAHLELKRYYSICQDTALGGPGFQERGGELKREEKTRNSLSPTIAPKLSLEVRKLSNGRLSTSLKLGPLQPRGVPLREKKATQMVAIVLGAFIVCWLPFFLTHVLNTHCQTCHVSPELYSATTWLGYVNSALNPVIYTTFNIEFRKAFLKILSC
For experiment [4], the target named is Recombinant human dopaminergic receptor D2L (Homo sapiens, UniProt P14416). Kind of experiment: GTPγS functional assay. The conditions noted are these: in words. Format: biochemical.
Sequence of Recombinant human dopaminergic receptor D2L (P14416 whole entry): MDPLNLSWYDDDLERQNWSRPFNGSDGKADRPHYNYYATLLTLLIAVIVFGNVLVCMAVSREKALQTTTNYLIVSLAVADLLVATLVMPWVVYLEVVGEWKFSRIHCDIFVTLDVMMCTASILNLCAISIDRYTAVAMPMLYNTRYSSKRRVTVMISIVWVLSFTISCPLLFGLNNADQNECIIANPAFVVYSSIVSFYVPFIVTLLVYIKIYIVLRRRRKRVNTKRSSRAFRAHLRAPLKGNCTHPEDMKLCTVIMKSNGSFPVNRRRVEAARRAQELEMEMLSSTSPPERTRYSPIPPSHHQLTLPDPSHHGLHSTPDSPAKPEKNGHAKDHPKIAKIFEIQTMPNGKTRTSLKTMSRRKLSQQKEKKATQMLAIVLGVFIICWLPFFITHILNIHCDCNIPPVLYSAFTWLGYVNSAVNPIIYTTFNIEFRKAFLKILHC
Experiment [5] addresses T3, Recombinant human serotonin receptor 5-HT1A (Homo sapiens, UniProt P08908).
T3 sequence (P08908 1-422): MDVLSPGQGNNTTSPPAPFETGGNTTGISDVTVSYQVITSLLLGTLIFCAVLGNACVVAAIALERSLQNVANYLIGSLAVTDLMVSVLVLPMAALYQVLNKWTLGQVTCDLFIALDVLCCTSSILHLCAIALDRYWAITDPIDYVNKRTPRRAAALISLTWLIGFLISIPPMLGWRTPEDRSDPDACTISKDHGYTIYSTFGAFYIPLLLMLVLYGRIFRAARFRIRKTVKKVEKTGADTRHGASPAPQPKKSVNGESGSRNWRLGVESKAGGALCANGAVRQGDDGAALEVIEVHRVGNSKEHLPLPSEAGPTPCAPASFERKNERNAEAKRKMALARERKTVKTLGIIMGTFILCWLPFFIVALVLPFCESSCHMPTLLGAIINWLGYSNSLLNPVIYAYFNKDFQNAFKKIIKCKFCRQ
As to the kind of experiment: GTPγS functional assay. Format: biochemical. Conditions: in words.

Experiment [6] concerns the target Recombinant human serotonin receptor 5-HT1B (Homo sapiens, UniProt P28222). Kind of experiment: GTPγS functional assay. Format: biochemical. Conditions: read-out: 5-HT1B agonism, EC50.
Experiment [7] concerns the target Recombinant human serotonin receptor 5-HT1D (Homo sapiens, UniProt P28221). As to the kind of experiment: GTPγS functional assay. It counts as biochemical.

Molecules are shown by their SMILES.

T1 sequence (P28223 whole entry): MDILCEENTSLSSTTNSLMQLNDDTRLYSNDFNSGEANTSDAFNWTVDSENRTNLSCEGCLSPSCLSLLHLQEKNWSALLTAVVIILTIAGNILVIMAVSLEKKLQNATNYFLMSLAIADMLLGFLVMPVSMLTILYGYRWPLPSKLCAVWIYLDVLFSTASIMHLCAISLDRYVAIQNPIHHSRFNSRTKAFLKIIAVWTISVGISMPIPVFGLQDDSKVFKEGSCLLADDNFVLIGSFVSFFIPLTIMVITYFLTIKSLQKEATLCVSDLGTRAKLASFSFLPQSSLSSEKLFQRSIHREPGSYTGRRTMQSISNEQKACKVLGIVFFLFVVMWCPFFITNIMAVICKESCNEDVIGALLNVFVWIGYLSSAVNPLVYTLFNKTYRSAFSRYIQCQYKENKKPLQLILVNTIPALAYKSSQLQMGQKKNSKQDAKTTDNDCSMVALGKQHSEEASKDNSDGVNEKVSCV
Sequence of Recombinant human serotonin receptor 5-HT1D (P28221 whole entry): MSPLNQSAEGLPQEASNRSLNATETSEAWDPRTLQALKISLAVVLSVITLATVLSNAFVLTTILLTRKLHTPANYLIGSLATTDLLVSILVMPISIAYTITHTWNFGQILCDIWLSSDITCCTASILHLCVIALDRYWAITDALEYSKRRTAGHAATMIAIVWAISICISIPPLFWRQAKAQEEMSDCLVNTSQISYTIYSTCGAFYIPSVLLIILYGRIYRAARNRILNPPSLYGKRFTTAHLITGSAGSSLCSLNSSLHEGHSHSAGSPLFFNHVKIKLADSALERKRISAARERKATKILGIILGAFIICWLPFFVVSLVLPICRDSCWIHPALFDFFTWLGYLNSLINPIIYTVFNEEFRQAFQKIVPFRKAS
Sequence of Recombinant human serotonin receptor 5-HT1B (P28222 whole entry): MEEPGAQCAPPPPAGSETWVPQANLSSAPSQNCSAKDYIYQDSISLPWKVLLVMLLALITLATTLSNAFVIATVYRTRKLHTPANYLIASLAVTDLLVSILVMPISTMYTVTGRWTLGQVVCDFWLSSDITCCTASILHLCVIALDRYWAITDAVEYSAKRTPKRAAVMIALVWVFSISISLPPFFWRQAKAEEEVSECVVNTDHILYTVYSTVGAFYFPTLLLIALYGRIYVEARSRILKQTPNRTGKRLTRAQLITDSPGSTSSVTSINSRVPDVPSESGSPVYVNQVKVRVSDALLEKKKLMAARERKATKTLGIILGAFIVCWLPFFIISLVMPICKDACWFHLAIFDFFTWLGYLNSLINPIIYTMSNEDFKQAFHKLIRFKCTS

`CN1C[C@@H](NC(=O)N(CC(F)(F)F)CC(F)(F)F)C=C2c3cccc4[nH]cc(c34)C[C@H]21` [Compound 5A]: the EC50 (commonly the concentration needed to bring the measured effect to its halfway point) in experiment [1] (agonist mode, 0.10 nM to 20,000 nM) worked out at 5020 nM; in experiment [3] (0.005 nM to 10,000 nM, read-out: agonist activity towards the dopaminergic D3 receptor, EC50), 27 nM; in experiment [6] it was 287 nM; in experiment [7] (read-out: 5-HT1D agonism, EC50), 15 nM. Also, the “5-HT2A receptor agonist activity” value in experiment [1] (in words, compared to lisuride) is listed as “weak 5-HT2A receptor agonist activity”. Further, the IC50 in experiment [2] (antagonist mode, 0.005 nM to 10,000 nM, read-out: 5-HT2B antagonism activity, 1050) stood at 190 nM. The 5-HT2B receptor activity in experiment [2] (in words) is on record as 5-HT2B antagonist. For the same molecule, in experiment [3] (in words, compared to lisuride), the “dopaminergic receptor D3 agonism” value is recorded as “weaker dopaminergic receptor D3agonism”. Further, the “D2L agonist activity (Emax) compared to lisuride” value in experiment [4] was “comparable D2L agonist activity (Emax)”. Moreover, the “agonistic activity towards the 5-HT1A receptor” value in experiment [5] is given as “weak/moderate agonistic activity”. The “selectivity for 5-HT1D to 5-HT1B” value in experiment [7] (ratio of EC50 values) is 20 fold.
